According to paper PMC10023787, “Trio-pharmacophore DNA-encoded chemical library for simultaneous selection of fragments and linkers” (Nature Communications, 2023):
Entries after “also recorded” stand apart in the source; their conditions may differ. Where two headings read alike, the source gives them in different places.

Assays:
MMP-2 = molecular target: T1, MMP-2 (Homo sapiens, UniProt P08253); test: De novo T-DEL selection against MMP-2, NGS decoding; format: binding; conditions: for MMP2 SL-A Count: NGS sequence count of sub-library SL-A building block; for MMP2 SL-A Enrichment Fold: sub-library SL-A building block
T1 construct: purchased Sino Biological 10082-HNAH
T1 sequence (P08253 110-660): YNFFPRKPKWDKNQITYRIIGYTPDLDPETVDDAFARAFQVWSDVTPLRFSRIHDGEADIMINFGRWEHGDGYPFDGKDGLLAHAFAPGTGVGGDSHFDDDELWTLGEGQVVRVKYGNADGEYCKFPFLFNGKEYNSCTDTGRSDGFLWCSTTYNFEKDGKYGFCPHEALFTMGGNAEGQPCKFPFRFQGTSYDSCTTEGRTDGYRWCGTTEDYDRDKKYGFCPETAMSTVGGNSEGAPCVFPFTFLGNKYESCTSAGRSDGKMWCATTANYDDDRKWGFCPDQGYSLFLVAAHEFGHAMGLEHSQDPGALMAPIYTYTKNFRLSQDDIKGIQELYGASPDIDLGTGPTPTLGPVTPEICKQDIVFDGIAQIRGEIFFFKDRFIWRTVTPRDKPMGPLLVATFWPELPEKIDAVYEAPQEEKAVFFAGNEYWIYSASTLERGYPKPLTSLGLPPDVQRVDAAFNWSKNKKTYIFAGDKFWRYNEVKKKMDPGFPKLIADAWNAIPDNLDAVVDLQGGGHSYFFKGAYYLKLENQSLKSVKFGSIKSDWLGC
Text: Matrix metalloproteinases (MMPs) are zinc-dependent endopeptidases capable of degrading and remodeling extracellular matrix components[46],[47]. They are attractive therapeutic targets as high expression levels were detected in various diseases, such as inflammatory diseases, and at different stages of cancers, including metastasis, invasion, and angiogenesis[47]–[53]. As shown in Supplementary Fig. 3c, we performed selections against the two gelatinases (human MMP-2 and human MMP-9) to identify binding fragments for later design and synthesis of small molecule inhibitors. After selection, the three sub-libraries were decoded, and the enrichment was calculated by dividing the post-selection fraction (count/total counts) by the pre-selection fraction (Fig. 4a and Supplementary Fig. 13).
4 µg of MMP-2/MMP-9 was dissolved in 100 µl of selection buffer containing 25 mM Tris-base, 10 mM CaCl2, 150 mM NaCl, 0.05% Tween 20, pH 7.5. 10 µl of 4-Aminophenylmercuric acetate (APMA) (100 mM) solution was added to the protein solution and incubated at 37 °C for 1 h. After activation, the solution was added on top of 40 µl pre-washed Ni-NTA resin and incubated for 30 min on a rotary shaker. The supernatant was discarded, and the resin was washed three times with the selection buffer.
For each independent selection, three sub-libraries were mixed in the selection buffer with a final concentration of 40 nM of each sub-library in 100 µl. The mixture was heat denatured at 90 °C for 1 min and slowly cooled down to allow the formation of the trio-pharmacophore library. The dynamic dual-pharmacophore DEL was provided by DyNAbind GmbH (Merck, DYNA001).
The assembled library was incubated with the protein-bound solid support for 2 h at RT on a rotary shaker. In parallel, selection on bare solid support served as the negative control to exclude promiscuous binders on the resin. After panning, the supernatant was discarded, and the resin was washed three times with 1 ml selection buffer. Finally, 100 µl of 50 mM Tris buffer, pH 7.4 was added to resuspend the resin and the resin was incubated at 95 °C for 5 min to denature the protein, release, and collect the bound library members.
The eluted library members were subjected to sample preparation for NGS. NGS preparation was achieved by two-step PCR. First, the individual selection was indexed using primers containing unique sequences corresponding to each selection. The amplified product was purified from 2% agarose gel. Second, the purified DNA from all selections were pooled in equal amount and subjected to the 2nd PCR step to attach sequences compatible with the NGS flow cell and the sequencing primers. NGS was performed by Novogene UK with Novaseq 6000. Raw data files (fastq files) obtained were decoded using a custom python script and excel. The sequence reads corresponding to each sample was retrieved by searching for the correct index unique to each selection. Then, the code region was extracted from each sequence and assigned to the corresponding identity. The count of each code in each selection sample was obtained by looping through the total reads and counting the occurrence of each code. The enrichment fold of each compound was calculated by first, dividing the count by the total count to get the abundance, second, the abundance after the selection was divided by the abundance of pre-selection to reflect the distribution change of the compound. Next, the enrichment fold was plotted against the count for each member of the library to give the scatter plots as in Fig. 4.

MMP-9 = molecular target: T2, MMP-9 (Homo sapiens, UniProt P14780); test: MMP-9 inhibition assay (fluorogenic peptide substrate); format: biochemical; conditions: for inhibitory effect: in words
T2 construct: purchased Sino Biological 10327-HNAH
T2 sequence (P14780 107-707 limits assumed): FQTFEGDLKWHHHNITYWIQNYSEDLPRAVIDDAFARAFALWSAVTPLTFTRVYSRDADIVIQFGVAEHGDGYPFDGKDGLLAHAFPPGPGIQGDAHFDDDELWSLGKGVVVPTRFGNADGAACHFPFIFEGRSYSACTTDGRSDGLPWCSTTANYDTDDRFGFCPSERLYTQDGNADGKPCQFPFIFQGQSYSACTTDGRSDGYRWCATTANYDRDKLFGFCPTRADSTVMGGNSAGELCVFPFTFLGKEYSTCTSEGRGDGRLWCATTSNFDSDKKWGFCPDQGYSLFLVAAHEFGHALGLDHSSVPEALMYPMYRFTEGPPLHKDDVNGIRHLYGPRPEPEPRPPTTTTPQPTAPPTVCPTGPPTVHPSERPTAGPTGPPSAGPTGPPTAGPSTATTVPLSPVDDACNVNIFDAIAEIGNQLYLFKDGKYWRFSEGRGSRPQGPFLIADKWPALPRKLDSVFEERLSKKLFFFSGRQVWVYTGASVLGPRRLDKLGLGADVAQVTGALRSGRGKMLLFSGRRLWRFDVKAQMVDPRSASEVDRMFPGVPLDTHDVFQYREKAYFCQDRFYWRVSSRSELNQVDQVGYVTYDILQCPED
How it was run: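 Human proMMP-2 and proMMP-9 were activated with 1 mM APMA (37 °C, 2 h), then used at 6.5 nM (MMP-2) or 10 nM (MMP-9) in Tris/NaCl/CaCl2/Brij 35 buffer, pH 7.5. Enzyme was preincubated with compound 30 min at RT; 25 μM DNP-Pro-Leu-Gly-Met-Trp-Ser-Arg substrate was added and fluorescence (ex 280/em 360 nm) followed 30 min. IC50 from logistic fits of Vmax.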

[1] = de novo T-DEL selection against MMP-2
[2] = MMP-9, concentration 1.95 µM, read-out: Mean (MMP-9 dose-response, Supplementary fig 15)

With `Cn1c(O)nc2cc(C(=O)O)cnc21` [Compound 826] the “MMP2 SL-A Count” value (MMP-2; [1]) was 1212, the “MMP2 SL-C Enrichment Fold” value (MMP-2; enrichment fold of sub-library SL-C member, MMP-2 selection, Figure 4a source data) was 2.518 and the “MMP2 SL-C Count” value (MMP-2; sequence count of sub-library SL-C member, MMP-2 selection, Figure 4a source data) was 5893. For the same compound, the “MMP2 SL-A Enrichment Fold” value (MMP-2; [1]) was 1.562, the remaining activity at 0.12207 µM (MMP-9; Figure 5b, fragment concentration 0.12207 µM, read-out: Normalized activity (Mean)) was 95.1% and the remaining activity at 0.488281 µM (MMP-9; Figure 5b, fragment concentration 0.488281 µM, read-out: Normalized activity (Mean)) was 93.3%. For the same compound, the remaining activity at 1.95312 µM (MMP-9; Figure 5b, fragment concentration 1.95312 µM, read-out: Normalized activity (Mean)) was 97.2%, the remaining activity at 7.8125 µM (MMP-9; Figure 5b, fragment concentration 7.8125 µM, read-out: Normalized activity (Mean)) was 99.6% and the remaining activity at 31.25 µM (MMP-9; Figure 5b, fragment concentration 31.25 µM, read-out: Normalized activity (Mean)) was 92%. The remaining activity at 125 µM (MMP-9; Figure 5b, fragment concentration 125 µM, read-out: Normalized activity (Mean)) was 94.2%, the remaining activity at 500 µM (MMP-9; Figure 5b, fragment concentration 500 µM, read-out: Normalized activity (Mean)) was 83% and the remaining activity at 0.12 µM (MMP-9; MMP-9, concentration 0.12 µM, read-out: Mean (MMP-9, Supplementary fig 16)) was 95.1%. It also gave a remaining activity at 0.49 µM (MMP-9; MMP-9, concentration 0.49 µM, read-out: Mean (MMP-9, Supplementary fig 16)) of 93.3%, a remaining activity at 1.95 µM (MMP-9; MMP-9, concentration 1.95 µM, read-out: Mean (MMP-9, Supplementary fig 16)) of 97.2% and a remaining activity at 7.81 µM (MMP-9; MMP-9, concentration 7.81 µM, read-out: Mean (MMP-9, Supplementary fig 16)) of 99.6%. It also gave a remaining activity at 31.25 µM (MMP-9; MMP-9, concentration 31.25 µM, read-out: Mean (MMP-9, Supplementary fig 16)) of 92%, a remaining activity at 125 µM (MMP-9; MMP-9, concentration 125.00 µM, read-out: Mean (MMP-9, Supplementary fig 16)) of 94.2% and a remaining activity at 500 µM (MMP-9; MMP-9, concentration 500.00 µM, read-out: Mean (MMP-9, Supplementary fig 16)) of 83%. The remaining activity at 0.12 µM (MMP-9; MMP-9, concentration 0.12 µM, read-out: Mean (MMP-9 dose-response, Supplementary fig 15)) was 95.1%, the remaining activity at 0.12 µM (MMP-9; MMP-9, concentration 0.12 µM, read-out: Mean (dose-response, Supplementary fig 17)) was 82.6% and the remaining activity at 0.49 µM (MMP-9; MMP-9, concentration 0.49 µM, read-out: Mean (MMP-9 dose-response, Supplementary fig 15)) was 93.3%. It also gave a remaining activity at 0.49 µM (MMP-9; MMP-9, concentration 0.49 µM, read-out: Mean (dose-response, Supplementary fig 17)) of 80.6%, a remaining activity at 1.95 µM (MMP-9; [2]) of 97.2% and a remaining activity at 1.95 µM (MMP-9; MMP-9, concentration 1.95 µM, read-out: Mean (dose-response, Supplementary fig 17)) of 99.3%. For the same compound, the remaining activity at 7.81 µM (MMP-9; MMP-9, concentration 7.81 µM, read-out: Mean (MMP-9 dose-response, Supplementary fig 15)) was 99.6%, the remaining activity at 7.81 µM (MMP-9; MMP-9, concentration 7.81 µM, read-out: Mean (dose-response, Supplementary fig 17)) was 88.5% and the remaining activity at 31.25 µM (MMP-9; MMP-9, concentration 31.25 µM, read-out: Mean (MMP-9 dose-response, Supplementary fig 15)) was 92%. For the same compound, the remaining activity at 31.25 µM (MMP-9; MMP-9, concentration 31.25 µM, read-out: Mean (dose-response, Supplementary fig 17)) was 96.1%, the remaining activity at 125 µM (MMP-9; MMP-9, concentration 125.00 µM, read-out: Mean (MMP-9 dose-response, Supplementary fig 15)) was 94.2% and the remaining activity at 125 µM (MMP-9; MMP-9, concentration 125.00 µM, read-out: Mean (dose-response, Supplementary fig 17)) was 87.7%. The remaining activity at 500 µM (MMP-9; MMP-9, concentration 500.00 µM, read-out: Mean (MMP-9 dose-response, Supplementary fig 15)) was 83%, the remaining activity at 500 µM (MMP-9; MMP-9, concentration 500.00 µM, read-out: Mean (dose-response, Supplementary fig 17)) was 84% and the inhibitory effect (MMP-9) was “No inhibitory effects could be measured; also recorded: did not exhibit meaningful activity”.
For `Cc1cc(=O)[nH]c(-n2nc(C)c(CCC(=O)O)c2C)n1` [Compound 693], the “MMP2 SL-A Count” value (MMP-2; [1]) was 3710, the “MMP2 SL-C Count” value (MMP-2; NGS sequence count of sub-library SL-C building block, de novo T-DEL selection against MMP-2) was 1010 and the “MMP2 SL-A Enrichment Fold” value (MMP-2; [1]) was 2.312. The “MMP2 SL-C Enrichment Fold” value (MMP-2; sub-library SL-C building block, de novo T-DEL selection against MMP-2) was 1.213, the remaining activity at 0.078016 µM (MMP-9; Figure 5b, fragment concentration 0.078016 µM, read-out: Normalized activity (Mean)) was 99.9% and the remaining activity at 0.39008 µM (MMP-9; Figure 5b, fragment concentration 0.39008 µM, read-out: Normalized activity (Mean)) was 97%. For the same compound, the remaining activity at 1.9504 µM (MMP-9; Figure 5b, fragment concentration 1.9504 µM, read-out: Normalized activity (Mean)) was 89.6%, the remaining activity at 9.752 µM (MMP-9; Figure 5b, fragment concentration 9.752 µM, read-out: Normalized activity (Mean)) was 87.1% and the remaining activity at 48.76 µM (MMP-9; Figure 5b, fragment concentration 48.76 µM, read-out: Normalized activity (Mean)) was 91%. It also gave a remaining activity at 243.8 µM (MMP-9; Figure 5b, fragment concentration 243.8 µM, read-out: Normalized activity (Mean)) of 37.1%, a remaining activity at 1219 µM (MMP-9; Figure 5b, fragment concentration 1219 µM, read-out: Normalized activity (Mean)) of 6.67% and a remaining activity at 0.08 µM (MMP-9; MMP-9, concentration 0.08 µM, read-out: Mean (MMP-9 dose-response, Supplementary fig 15)) of 99.9%. It also gave a remaining activity at 0.39 µM (MMP-9; MMP-9, concentration 0.39 µM, read-out: Mean (MMP-9 dose-response, Supplementary fig 15)) of 97%, a remaining activity at 1.95 µM (MMP-9; [2]) of 89.5% and a remaining activity at 9.75 µM (MMP-9; MMP-9, concentration 9.75 µM, read-out: Mean (MMP-9 dose-response, Supplementary fig 15)) of 87.1%. It also gave a remaining activity at 48.76 µM (MMP-9; MMP-9, concentration 48.76 µM, read-out: Mean (MMP-9 dose-response, Supplementary fig 15)) of 91%, a remaining activity at 243.8 µM (MMP-9; MMP-9, concentration 243.80 µM, read-out: Mean (MMP-9 dose-response, Supplementary fig 15)) of 37.1% and a remaining activity at 1219 µM (MMP-9; MMP-9, concentration 1219.00 µM, read-out: Mean (MMP-9 dose-response, Supplementary fig 15)) of 6.67%. The inhibitory effect (MMP-9) was “high µM range” and the IC50 (MMP-9; mean ± SE, n.d: not detected, Fig. 5e prints no unit, µM, read-out: IC50) was 206 ± 25.4 µM.
